Counter-ions that a name gives are not always drawn.
How the values were obtained:
[1] = molecular target: T1, endogenous cellular BACE2 (Rattus norvegicus, UniProt Q6IE75); test: Assay for BACE inhibition by measuring cellular TMEM27 cleavage; type: cell-based; settings: INS-TMEM27 (INS1e-derived) cells, shed human TMEM27 in supernatant by ELISA
T1 construct: endogenous cellular BACE2 in the Ins1e rat cell line; endogenous in cells; host or cells: INS-TMEM27 (INS1e-derived rat insulinoma cell line with doxycycline-inducible full-length human TMEM27)
T1 sequence (Q6IE75 63-514): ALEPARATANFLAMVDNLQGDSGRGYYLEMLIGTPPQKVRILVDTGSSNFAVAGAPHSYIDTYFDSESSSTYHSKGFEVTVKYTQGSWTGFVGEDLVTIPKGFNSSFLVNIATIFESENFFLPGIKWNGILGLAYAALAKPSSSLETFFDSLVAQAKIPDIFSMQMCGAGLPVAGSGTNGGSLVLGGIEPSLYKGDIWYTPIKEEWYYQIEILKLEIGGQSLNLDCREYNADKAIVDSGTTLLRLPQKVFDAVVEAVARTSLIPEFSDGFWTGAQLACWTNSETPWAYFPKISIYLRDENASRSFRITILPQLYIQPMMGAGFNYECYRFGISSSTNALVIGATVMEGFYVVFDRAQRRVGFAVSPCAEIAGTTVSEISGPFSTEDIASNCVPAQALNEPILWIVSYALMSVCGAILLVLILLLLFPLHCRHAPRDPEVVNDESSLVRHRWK
Description: Assay for BACE Inhibition by Measuring Cellular TMEM27 Cleavage:
The assay uses the principle of inhibition of human TMEM27 cleavage by endogenous cellular BACE2 in the Ins1e rat cell line and shedding from the cell surface into the culture medium, followed by detection in an ELISA assay. Inhibition of BACE2 prevents the cleavage and shedding in a dose-dependent manner.
The stable cell line “INS-TMEM27” represents an INS1e-derived cell line with inducible expression (using the TetOn system) of full-length hTMEM27 in a doxycycline-dependent manner. The cells are cultured throughout the experiment in RPMI1640+ Glutamax (Invitrogen) Penicillin/Streptomycin, 10% Fetal bovine serum, […], […], 100 micrograms/ml G418 and 100 microgram/ml hygromycin and are grown inadherent culture at 37° C. in a standard CO2 cell culture incubator.
INS-TMEM27 cells are seeded in 96-well plates. After 2 days in culture, BACE2 inhibitor is added in a range of concentrations as required by the assay and after a further two hours, doxycycline is added to a final concentration of 500 ng/ml. The cells are incubated for a further 46 hours and the supernatant harvested for detection of shed TMEM27.
An ELISA assay (using a pair of mouse anti-human-TMEM27 antibodies, raised against the extracellular domain of TMEM27) is used for detection of TMEM27 in the culture medium. An EC50 for BACE2 inhibition is calculated using the ELISA readout for each inhibitor concentration with standard curve-fitting software such as XLFit for the Excel spreadsheet program.

[2] = tested on: Aβ40; test: Cellular Aβ-lowering assay; type: cell-based; settings: HEK293 cells stably expressing human APP695, Aβ40 in supernatant by ELISA after 18-20 hrs; read-out: Cellular assay Abeta40 IC50
Method: Cellular Aβ-Lowering Assay:
Human HEK293 cells which are stably transfected with a vector expressing a cDNA of the human APP wt gene (APP695) were used to assess the potency of the compounds in a cellular assay. The cells were seeded in 96-well microtiter plates in cell culture medium (Iscove, plus 10% (v/v) fetal bovine serum, glutamine, penicillin/streptomycin) to about 80% confluence and the compounds were added at a 10× concentration in 1/10 volume of medium without FCS containing 8% DMSO (final concentration of DMSO was kept at 0.8% v/v). After 18-20 hrs incubation at 37° C. and 5% CO2 in a humidified incubator the culture supernatant was harvested for the determination of Aβ40 concentrations. 96well ELISA plates (e.g., Nunc MaxiSorb) were coated with monoclonal antibody which specifically recognize the C-terminal end of Aβ40 (Brockhaus et al., NeuroReport 9, 1481-1486; 1998). After blocking of non-specific binding sites with e.g. 1% BSA and washing, the culture supernatants were added in suitable dilutions together with a horseradish peroxidase-coupled Aβ detection antibody (e.g., antibody 4G8, Senetek, Maryland Heights, Mo.) and incubated for 5 to 7 hrs. Subsequently the wells of the microtiter plate were washed extensively with Tris-buffered saline containing 0.05% Tween 20 and the assay was developed with tetramethylbenzidine/H2O2 in citric acid buffer. After stopping the reaction with one volume 1 N H2SO4 the reaction was measured in an ELISA reader at 450 nm wavelength. The concentrations of Aβ in the culture supernatants were calculated from a standard curve obtained with known amounts of pure Aβ peptide.

| SMILES | IC50 [1] [nM] | IC50 [2] [nM] |
| --- | --- | --- |
| COc1ccc(C(=O)Nc2ccc(F)c([C@@]3(C)N=C(N)COCC3(F)F)c2)nc1 [Example 90, (R)-N-(3-(3-Amino-6,6-difluoro-5-methyl-2,5,6,7-tetrahydro-1,4-oxazepin-5-yl)-4-fluorophenyl)-5-methoxypicolinamide formate] | 85.3 | 5 |
| CC[C@@]1(c2cc(NC(=O)c3ccc(F)cn3)ccc2F)CCOCC(N)=N1 [Example 13, 5-Fluoro-pyridine-2-carboxylic acid [3-((S)-3-amino-5-ethyl-2,5,6,7-tetrahydro-[1,4]oxazepin-5-yl)-4-fluoro-phenyl]-amide] | 44 | 250 |
| C[C@@]1(c2cc(NC(=O)c3ccc(F)cn3)ccc2F)CCOCC(N)=N1 [Example 9] | 10 | 1.6 |
| C[C@]1(c2cc(NC(=O)c3ccc(OCC(F)(F)F)cn3)ccc2F)N=C(N)COCC1(F)F [Example 49, (R)-N-(3-(3-amino-6,6-difluoro-5-methyl-2,5,6,7-tetrahydro-1,4-oxazepin-5-yl)-4-fluorophenyl)-5-(2,2,2-trifluoroethoxy)picolinamide formate] | 1110 | 22 |
| C[C@]1(c2cc(NC(=O)c3ccc(C(F)F)cn3)ccc2F)N=C(N)COCC1(F)F [Example 108, (R)-N-(3-(3-Amino-6,6-difluoro-5-methyl-2,5,6,7-tetrahydro-1,4-oxazepin-5-yl)-4-fluorophenyl)-5-(difluoromethyl)picolinamide formate] | 49.5 | 5.7 |
| CCc1ocnc1C(=O)Nc1ccc(F)c([C@@]2(C)N=C(N)COCC2(F)F)c1 [Example 99, (R)-N-(3-(3-Amino-6,6-difluoro-5-methyl-2,5,6,7-tetrahydro-1,4-oxazepin-5-yl)-4-fluorophenyl)-5-ethyloxazole-4-carboxamide] | 118 | 130 |
| C[C@]1(c2cc(NC(=O)c3cnc(OCCF)cn3)ccc2F)N=C(N)COCC1(F)F [Example 71, (R)-N-(3-(3-Amino-6,6-difluoro-5-methyl-2,5,6,7-tetrahydro-1,4-oxazepin-5-yl)-4-fluorophenyl)-5-(2-fluoroethoxy)pyrazine-2-carboxamide formate] | 12400 | 1500 |
| CC[C@]1(c2cc(NC(=O)c3ncc(F)cc3C)ccc2F)N=C(N)COCC1(F)F [Example 102, (R)-N-(3-(3-Amino-5-ethyl-6,6-difluoro-2,5,6,7-tetrahydro-1,4-oxazepin-5-yl)-4-fluorophenyl)-5-fluoro-3-methylpicolinamide] | 2200 | 33 |
| C[C@]1(c2cc(NC(=O)c3cnc(C(F)(F)F)cn3)ccc2F)N=C(N)COCC1(F)F [Example 101, (R)-N-(3-(3-Amino-6,6-difluoro-5-methyl-2,5,6,7-tetrahydro-1,4-oxazepin-5-yl)-4-fluorophenyl)-5-(trifluoromethyl)pyrazine-2-carboxamide formate] | 1110 | 12 |
| C[C@]1(c2cc(NC(=O)C3CC3(F)F)ccc2F)N=C(N)COCC1(F)F (stereo partly drawn) [Example 34, N-(3-((R)-3-amino-6,6-difluoro-5-methyl-2,5,6,7-tetrahydro-1,4-oxazepin-5-yl)-4-fluorophenyl)-2,2-difluorocyclopropanecarboxamide formate] | 380 | 76 |
| CC1(C)C[C@@](C)(c2cc(NC(=O)c3ccc(Cl)cn3)ccc2F)N=C(N)CO1 [Example 10, 5-Chloro-pyridine-2-carboxylic acid [3-((S)-3-amino-5,7,7-trimethyl-2,5,6,7-tetrahydro-[1,4]oxazepin-5-yl)-4-fluoro-phenyl]-amide] | 1.6 | 1.1 |
| C[C@]1(c2cc(NC(=O)c3cnc(OCC(F)F)cn3)ccc2F)N=C(N)COCC1(F)F [Example 74, (R)-N-(3-(3-Amino-6,6-difluoro-5-methyl-2,5,6,7-tetrahydro-1,4-oxazepin-5-yl)-4-fluorophenyl)-5-(2,2-difluoroethoxy)pyrazine-2-carboxamide formate] | 3380 | 10 |
| C[C@]1(c2cc(NC(=O)c3nn(C(F)F)cc3Cl)ccc2F)N=C(N)COC[C@@H]1F [Example 115, N-(3-((5R,6R)-3-Amino-6-fluoro-5-methyl-2,5,6,7-tetrahydro-1,4-oxazepin-5-yl)-4-fluorophenyl)-4-chloro-1-(difluoromethyl)-1H-pyrazole-3-carboxamide] | 6 | 3.8 |
| C[C@@]1(c2cc(NC(=O)c3ncccc3F)ccc2F)CCOCC(N)=N1 [Example 6, 3-Fluoro-pyridine-2-carboxylic acid [3-((S)-3-amino-5-methyl-2,5,6,7-tetrahydro-[1,4]oxazepin-5-yl)-4-fluoro-phenyl]-amide formate] | 3.6 | 36 |
| Cc1ccc(C(=O)Nc2ccc(F)c([C@@]3(C)N=C(N)COCC3(F)F)c2)nc1 [Example 94, (R)-N-(3-(3-Amino-6,6-difluoro-5-methyl-2,5,6,7-tetrahydro-1,4-oxazepin-5-yl)-4-fluorophenyl)-5-methylpicolinamide formate] | 24.3 | 10 |
| CC[C@]1(c2cc(NC(=O)c3ncoc3C)ccc2F)N=C(N)COCC1(F)F [Example 87, (R)-N-(3-(3-amino-5-ethyl-6,6-difluoro-2,5,6,7-tetrahydro-1,4-oxazepin-5-yl)-4-fluorophenyl)-5-methyloxazole-4-carboxamide] | 134 | 1120 |
| C[C@]1(c2cc(NC(=O)c3nsc(Cl)n3)ccc2F)N=C(N)COCC1(F)F [Example 73, (R)-N-(3-(3-Amino-6,6-difluoro-5-methyl-2,5,6,7-tetrahydro-1,4-oxazepin-5-yl)-4-fluorophenyl)-5-chloro-1,2,4-thiadiazole-3-carboxamide formate] | 6520 | 300 |
| COc1cnc(C(=O)Nc2ccc(F)c([C@@]3(C)N=C(N)COCC3(F)F)c2)cn1 [Example 109, (R)-N-(3-(3-Amino-6,6-difluoro-5-methyl-2,5,6,7-tetrahydro-1,4-oxazepin-5-yl)-4-fluorophenyl)-5-methoxypyrazine-2-carboxamide formate] | 143 | 1.9 |
| CCOC(=O)c1ccc(C(=O)Nc2ccc(F)c([C@@]3(C)N=C(N)COCC3(F)F)c2)nc1 [Example 58, (R)-ethyl 6-(3-(3-amino-6,6-difluoro-5-methyl-2,5,6,7-tetrahydro-1,4-oxazepin-5-yl)-4-fluorophenylcarbamoyl)nicotinate formate formate] | 139 | 120 |
| CC[C@]1(c2cc(NC(=O)c3nn(C(F)F)cc3Cl)ccc2F)N=C(N)COCC1(F)F [Example 116, (R)-N-(3-(3-Amino-5-ethyl-6,6-difluoro-2,5,6,7-tetrahydro-1,4-oxazepin-5-yl)-4-fluorophenyl)-4-chloro-1-(difluoromethyl)-1H-pyrazole-3-carboxamide] | 189 | 20 |
